Test results from US20180362531A1, “NOVEL KYNUREININE PATHWAY INHIBITORS” (STANDARD LLC, priority 2017, published 2018).

Tests used:
Assay type in all cases: biochemical
Human IDO2 His-Tag = target: T1, Human IDO2 His-Tag (Homo sapiens, UniProt Q6ZQW0); test: IDO2 Inhibitor Screening Assay (BPS Bioscience kit, absorption at 321 nm); conditions: room temperature, 3 hours
T1 construct: purchased BPS Bioscience
T1 sequence (Q6ZQW0 1-407): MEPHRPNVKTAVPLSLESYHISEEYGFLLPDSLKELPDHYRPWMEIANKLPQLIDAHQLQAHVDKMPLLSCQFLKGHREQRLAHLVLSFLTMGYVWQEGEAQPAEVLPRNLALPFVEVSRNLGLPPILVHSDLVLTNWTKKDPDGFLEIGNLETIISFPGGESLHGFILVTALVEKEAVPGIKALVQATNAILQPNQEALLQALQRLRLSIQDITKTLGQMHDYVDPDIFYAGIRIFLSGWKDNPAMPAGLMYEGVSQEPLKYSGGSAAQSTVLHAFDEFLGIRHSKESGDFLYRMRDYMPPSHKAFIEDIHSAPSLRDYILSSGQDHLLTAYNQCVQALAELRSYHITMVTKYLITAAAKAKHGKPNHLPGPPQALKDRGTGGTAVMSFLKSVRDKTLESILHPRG
Procedure: To evaluate the selectivity of IDO inhibition for Compounds Nos. D42 and D46, an assay to measure activity against IDO2 was performed. The IDO2 Inhibitor Screening Assay kit (BPS Bioscience) was used for IDO2 test. The protocol is similar to IDO1 assay. IDO2 reaction solution (90 μl) was aliquoted into each well of a 96-well plate. 5 μl of compound solution in 10% DMSO was added to each well. 5 μl 10% DMSO was added to the positive control and blank wells. Human IDO2 His-Tag was diluted in 1×IDO2 Assay buffer at 400 ng/μl. The reaction was initiated by adding 5 μl diluted IDO2. 1×IDO2 assay buffer to the blank well. After incubating at room temperature for 3 hours, the absorption was measured at the wavelength of 321 nm. The IC50 was calculated as described for IDO2.
The test compound inhibition was measured as X-fold. The control solution (DMSO) was measured as Y-fold. The relative activity, I, was the ratio of former to later, i.e. X/Y, expressed in percentile. The IC50 was the concentration of the compounds when X/Y equals 50 and calculated based on the dose-response curve.

Human TDO His-Tag = target: T2, Human TDO His-Tag (Homo sapiens, UniProt P48775); test: TDO Inhibition Screening Assay (BPS Bioscience kit, absorption at 321 nm); conditions: room temperature, 1.5 hours
T2 construct: purchased BPS Bioscience
T2 sequence (P48775 whole entry): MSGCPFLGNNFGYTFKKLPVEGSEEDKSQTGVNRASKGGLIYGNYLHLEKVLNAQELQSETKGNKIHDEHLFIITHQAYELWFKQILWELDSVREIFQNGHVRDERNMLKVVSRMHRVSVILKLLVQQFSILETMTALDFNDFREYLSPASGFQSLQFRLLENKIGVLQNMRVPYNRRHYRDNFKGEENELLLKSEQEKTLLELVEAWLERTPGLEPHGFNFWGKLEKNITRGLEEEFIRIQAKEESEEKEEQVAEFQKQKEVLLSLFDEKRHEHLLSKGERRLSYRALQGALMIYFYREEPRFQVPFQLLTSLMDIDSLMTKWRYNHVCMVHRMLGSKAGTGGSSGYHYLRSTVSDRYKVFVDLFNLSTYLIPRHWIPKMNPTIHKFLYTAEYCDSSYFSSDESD
Procedure: The TDO inhibitor Screening Assay kit (BPS Bioscience) was used to test for TDO inhibition by Compound Nos. D42 and D46. The protocol is similar to IDO1 assay. TDO reaction solution (90 μl) was aliquoted into each well of a 96-well plate. 5 μl of compound solution in 10% DMSO was added to each well. 5 μl 10% DMSO was added to the positive control and blank wells. Human TDO His-Tag was diluted in 1×TDO Assay buffer at 50 ng/μl. The reaction was initiated by adding 5 μl diluted TDO. 1×TDO assay buffer was added to the blank well. After incubating at room temperature for 1.5 hours, the absorption was measured at the wavelength of 321 nm. The IC50 was calculated as described for TDO inhibition. The relative activity and IC50 was calculated as described above in Examples 3 and 4.

Human IDO1 His-Tag = target: T3, Human IDO1 His-Tag (Homo sapiens, UniProt P14902); test: IDO1 Inhibitor Screening Assay (BPS Bioscience kit, absorption at 321 nm); conditions: room temperature, 3 hours; N.D. = Not Detected
T3 construct: purchased BPS Bioscience
T3 sequence (P14902 whole entry): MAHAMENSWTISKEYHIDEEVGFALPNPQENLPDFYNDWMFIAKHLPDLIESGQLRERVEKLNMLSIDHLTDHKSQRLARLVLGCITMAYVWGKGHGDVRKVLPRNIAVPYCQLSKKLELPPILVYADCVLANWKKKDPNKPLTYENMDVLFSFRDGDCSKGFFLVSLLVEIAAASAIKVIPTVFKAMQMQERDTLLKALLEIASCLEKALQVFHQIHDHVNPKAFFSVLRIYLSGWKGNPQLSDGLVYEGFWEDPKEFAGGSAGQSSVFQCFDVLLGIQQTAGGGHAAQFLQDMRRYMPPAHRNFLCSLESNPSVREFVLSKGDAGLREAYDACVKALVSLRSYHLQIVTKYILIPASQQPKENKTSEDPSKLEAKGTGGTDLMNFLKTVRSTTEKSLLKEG
Procedure: IDO1 (indoleamine 2,3-dioxygenase-1) catalyzes the oxidative cleavage of the pyrrole ring of tryptophan to yield N′-formylkynurenine. The amount of N′-formylkynurenine product is able to be detected by the absorption at the wavelength of 321 nm. IDO1 inhibitor Screening Assay kit (BPS Bioscience) was used to test the compound. The assay was performed as described in the assay protocol.
IDO1 reaction solution (90 μl) was aliquoted into each well of a 96-well plate. 5 μl of the compound solution in 10% DMSO was added to each well. 5 μl 10% DMSO was added to the positive control and blank wells. Human IDO1 His-Tag was diluted to 40 ng/μl in 1×IDO1 Assay buffer. The reaction was initiated by adding 5 μl of diluted IDO1. In the blank well, only 1×IDO1 assay buffer was added instead. After incubating at room temperature for 3 hours, the absorption was measured at the wavelength of 321 nm using a microplate reader.
The relative activity, I, was the ratio of former to later, i.e. X/Y, expressed in percentile. The IC50 was the concentration of the compounds when X/Y equals 50 and calculated based on the dose-response curve.

Structure (SMILES) | IDO2 inhibition (Human IDO2 His-Tag) | IC50 (Human TDO His-Tag) | IC50 (Human IDO1 His-Tag)
N#Cc1ccc(NC(=O)NCC2c3ccccc3-c3cncn32)cc1 (stereo not drawn) [D42, 1-((5H-imidazo[5,1-a]isoindol-5-yl)methyl)-3-(4-cyanophenyl)urea] | No IDO2 inhibition was detected | 0.064 µM | 61 nM
N#Cc1ccc(NC(=O)NCCC2c3ccccc3-c3cncn32)cc1 (stereo not drawn) [D46, 1-(2-(5H-imidazo[5,1-a]isoindol-5-yl)ethyl)-3-(4-cyanophenyl)urea] | No IDO2 inhibition was detected | 0.064 µM | 325 nM
